Our source for the viability and EC50 values is US10179770B2, “Quinolines derivatives as novel anticancer agents” (GENOSCIENCE PHARMA, priority 2013, dated 2019).

The structures appear in SMILES notation. pEC50: −log10 of the molar value.

The subject of one assay is HCT-116. The experiment in a line: Cell proliferation assay at 10 μM. The assay is classed as cell-based. The conditions noted are these: Homo sapiens, HCT-116, 72 h, read-out: Cell viability observed at 10 μM. Summed up: (§1)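 A375 and HCT-116 cells grown in DMEM with 10% FBS, seeded overnight, then exposed to compound at 10 μM for 72 h at 37 °C, 5% CO2 against vehicle control. Outgrowth read by MTS (CellTiter 96 Aqueous One) absorbance; each point the mean of two replicates.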

The test system of assay [1] is MOLM-14. Kind of assay: Cell proliferation assay at 10 μM. The assay is classed as cell-based, human. The note with it: Homo sapiens, MOLM-14, 72 h, read-out: Cell viability observed at 10 μM. The method, boiled down: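 MOLM-14 suspension cells (30,000/well, MEM alpha with 10% FBS) treated with compound at 10 μM, constant vehicle percentage, for 72 h at 37° C. Outgrowth measured by sulforhodamine B absorbance; each point is mean of two replicates.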

Another assay relates to A-375. Kind of assay: EC50 determination in cancer cell lines. The assay is classed as cell-based, human. The note with it: Homo sapiens, A-375, 72 h. Here is the method: (§2) Compounds were added at different concentrations to each well, and cell cultures were incubated for 72 h. Vehicle (DMSO or H2O) was used as a control, and all compounds were tested in a constant percentage of vehicle. Cell outgrowth was measured using for adherent cells CellTiter […] Aqueous One Solution Cell Proliferation Assay (Promega) and for cell suspension, Sulforhodamine B colorimetric assay as described in Vichai et al. (Vichai, V. and Kirtikara, K. Nat. Protoc. 2006 (1) 1112-1116). Absorbance was measured using an Infinite F200 Pro or Sunrise TECAN plate reader.
(§3) The human melanoma cell line A375, colorectal carcinoma cell line HCT-116, hepatocellular carcinoma cell line HepG2 were cultured in Dulbecco's modified Eagle's medium supplemented with 10% fetal bovine serum and 1% Penicillin-Streptomycin. The human melanoma cell lines SK-MEL-28 and SK-MEL-5 were cultured in Minimum Essential Medium. The colorectal carcinoma cell lines HT-29 and Colo205 were respectively cultured in Mc Coy's and RPMI media. The human leukemia cell lines MV4-11 and KG-1 were cultured in Iscove's Modified Dulbecco's Media. The human leukemia cell line MOLM-14 was cultured in Minimum Essential Medium Alpha Medium supplemented with 10% Fetal Bovine Serum and 1% Penicillin-Streptomycin All culture media were supplemented with 10% fetal bovine serum and 1% Penicillin-Streptomycin except for MV4-11 cell line 20% fetal bovine serum and 1% Penicillin-Streptomycin. All the cell lines were maintained at 37° C. with 5% C02.
(§4) Briefly, adherent cells, A375, HCT-116, HepG2, SK-MEL-28, SK-MEL-5, HT-29 and Colo205 cells were respectively plated at 800, 5,000, 7,000, 2,500, 3,000-5,000, 5,000 or 5,000 cells per well onto 96-well plates in 90 μL of media per well and were allowed to grow overnight before the assay. For MV4-11 and KG-1 cells that grow in suspension, 40,000-60,000 cells were plated onto 96-well plates immediately before the assay. MOLM-14 cell line, that grow in suspension, 30,000 cells were plated onto 96-well plates immediately before the assay.
(§5) The cell growth measure was the same as described in example 51.
(§6) The experimental data are analyzed using a computer program, Graphpad Prism (GraphPad Software, Inc. La Jolla, Calif.) and EC50 values were determined as the dose of compound required to reduce absorbance values to 50% of the signal obtained for vehicle treated cell cultures and were a mean of at least two independent experiments except for EC50 values with (*) where […].

The next assay relates to HepG2. Kind of assay: EC50 determination in cancer cell lines. The assay is classed as cell-based, human. The note with it: Homo sapiens, HepG2, 72 h. The method, then: as §2, §3, §4, §5, §6
The subject of assay [2] is patient derived acute myeloid leukemia (AML) cell lines. The experiment in a line: Cell growth inhibition assay, patient derived AML cells. It counts as cell-based, human. The conditions noted are these: Homo sapiens, 48 h. The method, then:
The patient derived acute myeloid leukemia (AML) cells were obtained after written informed consent under the Institut Paoli Calmette (IPC) institutional review board approval and under the strict compliance of the Helsinki declaration on medical research involving human subjects. […] Each compound was added at different concentrations (combinations of six concentrations) to each well, and cell cultures were incubated for 48 h. Vehicle (H2O) was used as a control, and all compounds were tested in a constant percentage of vehicle. Cell outgrowth was measured using the CellTiter-Glo luminescent cell viability assay as described by the manufacturer (Promega, Ref G7571 Madison, Wis., USA) using a Centro (Berthold, France) plate reader. In each experiment, each point represents the average of triplicates in cell culture. The experimental data are analyzed using a computer program, Graphpad Prism (GraphPad Software, Inc.

For a further assay, the system named is KG-1. Kind of assay: EC50 determination in cancer cell lines. The assay is classed as cell-based. The conditions noted are these: Homo sapiens, 72 h. Here is the method:
as §2, §3, §4, §5, §6

Assay [3] concerns MOLM-14. Kind of assay: EC50 determination in cancer cell lines. The note with it: Homo sapiens, 72 h. It counts as cell-based. The method, then:
as §2, §3, §4, §5, §6

The next assay relates to MV4-11. The experiment in a line: EC50 determination in cancer cell lines. The assay is classed as cell-based. The conditions noted are these: Homo sapiens, 72 h. Here is the method: as §2, §3, §4, §5, §6
In the next assay the test system is HT-29. The experiment in a line: EC50 determination in cancer cell lines. The assay is classed as cell-based. The conditions noted are these: Homo sapiens, 72 h, * n>2. The method, then:
as §2, §3, §4, §5, §6

In the next assay the test system is SK-MEL-5. The experiment in a line: EC50 determination in cancer cell lines. The assay is classed as cell-based. The conditions noted are these: Homo sapiens, 72 h. The method, then:
as §2, §3, §4, §5, §6

A further assay has as its system SK-MEL-28. The experiment in a line: EC50 determination in cancer cell lines. The assay is classed as cell-based. The note with it: Homo sapiens, 72 h. Here is the method: as §2, §3, §4, §5, §6
Another assay relates to A375. The experiment in a line: Cell proliferation assay at 10 μM. The conditions noted are these: Homo sapiens, A-375, 72 h, read-out: Cell viability observed at 10 μM. The assay is classed as cell-based, human. Summed up: as §1
In assay [4] the test system is PBMC Healthy voluntary donor. Kind of assay: Cell growth inhibition assay, PBMC of healthy donors. It counts as cell-based, human. The note with it: Homo sapiens, PBMC. Here is the method: Each compound was added at different concentrations (combinations of six concentrations) to each well, and cell cultures were incubated for 48 h. Vehicle (H2O) was used as a control, and all compounds were tested in a constant percentage of vehicle. Cell outgrowth was measured using the CellTiter-Glo luminescent cell viability assay as described by the manufacturer (Promega, Ref G7571 Madison, Wis., USA) using a Centro (Berthold, France) plate reader. In each experiment, each point represents the average of triplicates in cell culture. The experimental data are analyzed using a computer program, Graphpad Prism (GraphPad Software, Inc.

As a reminder, the viability is a read-out of living cells in per cent, often relative to untreated cells. One may read the pEC50 as −log10 of the EC50, conventionally taken in molar units.

`CCN(CC)C1CCN(C(C)c2cc(-c3ccc4ccccc4c3)nc3ccccc23)CC1.Cl.Cl` (centres unmarked) [XXIV-3, 2-(2-naphtyl)-4-{1-[4-(N,N-diethylamino)-piperidin-1-yl]-eth-1-yl}quinoline dihydrochloride]: the viability at 10 µM in the assay on HCT-116, with MOLM-14 [1] and with A375 was < 20% each time. The pEC50 in the assay with A-375 is 5.52; in the assay with HepG2 it was 4.96; in assay [2] (Patient 3, subtype Tri8), 5.70; in assay [2] (Patient 8, subtype FLT3−), 5.00; in [2] (Patient 9, subtype FLT3+) it was 4.77; in assay [2] (Patient 10, subtype Inv 3), 4.89. The pEC50 in assay [2] (Patient 12, subtype 5 & 7) is 4.96; in assay [2] (Patient 13, subtype MLL) it was 5.10; in [2] (Patient 16, subtype Inv 3), 5.22; in the assay on KG-1 it was 5.40; with MOLM-14 [3], 5.40; with MV4-11, 5.52. For the same compound, the pEC50 with HT-29 is 5.15; in the assay on SK-MEL-5, 5.52; with SK-MEL-28, 5.52; in assay [4] (PBMC Healthy voluntary donor 1), 5.10; in assay [4] (PBMC Healthy voluntary donor 2) it was 5.15.
`Cc1ccc(-c2cc(N3CCC(NC(C)(C)C)CC3)c3ccccc3n2)cc1.Cl.Cl` [XIII-8, 2-(4-methyl-phenyl)-4-(4-N-tert-butylamino-piperidin-1-yl)quinoline dihydrochloride]: the viability at 10 µM with HCT-116, in the assay on MOLM-14 [1] and in the assay with A375 was < 20% throughout. Besides, the pEC50 in the assay on A-375 was 5.22; in the assay with HepG2, 4.77; in assay [2] (Patient 3, subtype Tri8), 4.82; in assay [2] (Patient 8, subtype FLT3−), 4.57; in assay [2] (Patient 9, subtype FLT3+), 4.66; in [2] (Patient 10, subtype Inv 3), 4.46. Further, the pEC50 in assay [2] (Patient 12, subtype 5 & 7) is 4.68; in assay [2] (Patient 13, subtype MLL), 4.60; in assay [2] (Patient 16, subtype Inv 3) it was 4.62; in the assay on KG-1, 5.05; in the assay on MOLM-14 [3] it was 5.52; with MV4-11, 5.70. Also, the pEC50 is 4.80 in the assay with HT-29; 5.15 in the assay on SK-MEL-5; 5.30 with SK-MEL-28; 4.38 in [4] (PBMC Healthy voluntary donor 1); 4.80 in assay [4] (PBMC Healthy voluntary donor 2).
As for `CCN(CC)C1CCN(C(C)c2cc(-c3ccccc3)nc3ccccc23)CC1.Cl.Cl` (centres unmarked) [XIX-3, 2-phenyl-4-{1-[4-(N,N-diethylamino)piperidin-1-yl]-eth-1-yl}quinoline dihydrochloride], the viability at 10 µM was 20 to 40% in the assay on HCT-116, 20 to 40% with MOLM-14 [1] and < 20% in the assay on A375. Moreover, the pEC50 is 5.05 with A-375; 4.66 in the assay with HepG2; 5.10 in [2] (Patient 3, subtype Tri8); 4.68 in [2] (Patient 8, subtype FLT3−); 4.74 in [2] (Patient 9, subtype FLT3+); 4.55 in assay [2] (Patient 10, subtype Inv 3). For the same compound, the pEC50 in [2] (Patient 12, subtype 5 & 7) is 4.80; in assay [2] (Patient 13, subtype MLL) it was 4.80; in assay [2] (Patient 16, subtype Inv 3), 4.66; with KG-1 it was 4.85; in the assay on MOLM-14 [3], 4.96; with MV4-11 it was 5.05. In addition, the pEC50 with HT-29 was 4.74; with SK-MEL-5 it was 5.22; in the assay with SK-MEL-28, 5.22; in assay [4] (PBMC Healthy voluntary donor 2), 4.68.
Take `CC(C)(C)NC1CCN(c2cc(-c3ccc(Cl)cc3)nc3ccccc23)CC1.Cl.Cl` [XII-4, 2-(4-chloro-phenyl)-4-(4-N-tert-butylamino-piperidin-1-yl)quinoline dihydrochloride]: the viability at 10 µM in the assay on HCT-116, in the assay on MOLM-14 [1] and in the assay on A375 was < 20% each time. The pEC50 in the assay with A-375 was 5.30; in assay [2] (Patient 3, subtype Tri8), 5.30; in [2] (Patient 8, subtype FLT3−), 4.68; in assay [2] (Patient 9, subtype FLT3+), < 4.40; in assay [2] (Patient 10, subtype Inv 3), 4.60; in assay [2] (Patient 12, subtype 5 & 7) it was < 4.40. In addition, the pEC50 in assay [2] (Patient 13, subtype MLL) was 4.57; in assay [2] (Patient 16, subtype Inv 3) it was 4.72; in the assay on KG-1 it was 5.40; in the assay on MOLM-14 [3], 5.52; with MV4-11, 5.70; in the assay on SK-MEL-5 it was 5.30. For the same compound, the pEC50 in the assay on SK-MEL-28 is 5.52; in assay [4] (PBMC Healthy voluntary donor 1), 4.37; in [4] (PBMC Healthy voluntary donor 2), 4.82.
